# Measurements: ChEMBL document CHEMBL5053544, “Microbial transformation of pentacyclic triterpenes for anti-inflammatory agents on the HMGB1 stimulated RAW 264.7 cells by Streptomyces olivaceus CICC 23628” (Bioorg Med Chem, 2021)
# Test system: RAW264.7
# Experiment: Antiinflammatory activity against mouse RAW264.7 cells assessed as inhibition of HMGB1-induced NO production pretreated with compounds for 15 mins followed by HMGB1 stimulation measured after 24 hrs by Griess reagent based assay
# Assay type: functional, cell-based
row,IC50 [µM],Structure (SMILES)
1,> 100,COC(=O)CC[C@@]1(C)[C@H]([C@](C)(O)CO)CC[C@]2(C)[C@@H]1CC=C1[C@@H]3C[C@@](C)(CO)C[C@@H](O)[C@]3(C)CC[C@]12C
2,> 100,C[C@@]1(CO)C[C@H]2C3=CC[C@@H]4[C@@](C)(CCC(=O)O)[C@H]([C@](C)(O)CO)CC[C@@]4(C)[C@]3(C)CC[C@@]2(C)[C@H](O)[C@@H]1O
3,> 100,C=C(C)[C@@H]1CC[C@]2(C(=O)O)CC[C@]3(C)[C@H](CC[C@@H]4[C@@](C)(CCC(=O)O)[C@H](C(C)(C)O)CC[C@]43C)[C@@H]12
4,> 100,CC1(C)C[C@H]2C3=CC[C@@H]4[C@@]5(C)CC[C@H](O)[C@](C)(CO)[C@@H]5CC[C@@]4(C)[C@]3(C)CC[C@@]2(C)[C@H](O)[C@@H]1O [SOYASAPOGENOL A]
5,> 100,CC1(C)C[C@H]2C3=CC[C@@H]4[C@@](C)(CCC(=O)O)[C@H]([C@](C)(O)CO)CC[C@@]4(C)[C@]3(C)CC[C@@]2(C)[C@H](O)[C@@H]1O
6,> 100,CC(O)(CO)[C@@H]1CC[C@]2(C)[C@H](CC=C3[C@@H]4C[C@@](C)(CO)C[C@@H](O)[C@]4(C)CC[C@]32C)[C@@]1(C)CCC(=O)O (some centres not stated)
7,> 100,CC1(C)C[C@H]2C3=CC[C@@H]4[C@@](C)(CCC(=O)O)[C@H]([C@](C)(O)CO)CC[C@@]4(C)[C@]3(C)C[C@@H](O)[C@@]2(CO)[C@@H](O)[C@@H]1O
8,36,C[C@]1(CO)C[C@H]2C3=CC[C@@H]4[C@@](C)(CCC(=O)O)[C@H]([C@](C)(O)CO)CC[C@@]4(C)[C@]3(C)CC[C@@]2(C)[C@H](O)[C@@H]1O
9,> 100,CC1(C)C[C@@H](O)[C@]2(C)CC[C@]3(C)C(=CC[C@@H]4[C@@]5(C)CC[C@H](O)[C@](C)(CO)[C@@H]5CC[C@]43C)[C@@H]2C1 [SOYASAPOGENOL B]
10,15.9,CC1(C)C[C@H]2C3=CC[C@@H]4[C@@](C)(CCC(=O)O)[C@H]([C@](C)(O)CO)CC[C@@]4(C)[C@]3(C)CC[C@@]2(C)[C@H](O)[C@H]1O
11,11.4,CC1(C)[C@@H](OC(=O)CCC(=O)O)CC[C@]2(C)[C@H]3C(=O)C=C4[C@@H]5C[C@@](C)(C(=O)O)CC[C@]5(C)CC[C@@]4(C)[C@]3(C)CC[C@@H]12 [CARBENOXOLONE]
12,> 100,CC1(C)C[C@@H](O)[C@]2(C)CC[C@]3(C)C(=CC[C@@H]4[C@@](C)(CCC(=O)O)[C@H]([C@](C)(O)CO)CC[C@]43C)[C@@H]2C1
13,> 100,C=C(CO)[C@@H]1CC[C@]2(C(=O)O)CC[C@]3(C)[C@H](CC[C@@H]4[C@@](C)(CCC(=O)OC)[C@H](C(C)(C)O)CC[C@]43C)[C@@H]12
14,> 100,C=C(C)[C@@H]1CC[C@]2(C(=O)O)CC[C@]3(C)[C@H](CC[C@@H]4[C@@](C)(CCC(=O)OC)[C@H](C(C)(C)O)CC[C@]43C)[C@@H]12
15,> 100,C[C@@]1(CO)C[C@@H](O)[C@]2(C)CC[C@]3(C)C(=CC[C@@H]4[C@@](C)(CCC(=O)O)[C@H]([C@](C)(O)CO)CC[C@]43C)[C@@H]2C1
16,> 100,C=C(CO)[C@@H]1CC[C@]2(C(=O)O)CC[C@]3(C)[C@H](CC[C@@H]4[C@@](C)(CCC(=O)O)[C@H](C(C)(C)O)CC[C@]43C)[C@@H]12

row,Structure (SMILES),IC50 [µM]
1,C=C(C)[C@@H]1CC[C@]2(C(=O)O)CC[C@]3(C)[C@H](CC[C@@H]4[C@@]5(C)CC[C@H](O)C(C)(C)[C@@H]5CC[C@]43C)[C@@H]12 [BETULINIC ACID],> 100
